Measurements taken from the METLIN SMRT retention time set (Domingo-Almenara et al. 2019).

Assay: gradient 5% acetonitrile 3 min, to 50% in 2 min, to 85% in 15 min, held 3 min, 100 µL/min
Conditions: column: Zorbax Extend-C18 2.1 x 50 mm; eluents: water / acetonitrile, 0.1% formic acid
Outline: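 Retention times come from adduct peaks that were picked computationally and then checked by hand. The standards, pure and pooled in mixtures of ~100 molecules, were run on a Zorbax Extend-C18 column (2.1 × 50 mm, 1.8 μm) at 100 μL/min with water and acetonitrile, each with 0.1% formic acid. Detection was by quadrupole time-of-flight mass spectrometry in positive and negative ionization mode, with a dead volume of 40 μL and a dwell volume of 900 μL.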

Compound | RP-LC retention time
CCCC(=O)N1CCN(c2nc(CN3CCOCC3)cs2)CC1 | 580 s
Cc1ccc(-c2nc(-c3cccc(-c4ccnn4C)c3)no2)s1 | 1160 s
COc1ccc(-c2c(C(=O)NCCN3CCOCC3)nc3ccccn23)cc1 | 601 s
Cc1ccc(-c2nc(C)cc(OCC(=O)NCc3ccc4c(c3)OCO4)n2)cc1 | 919 s
O=C(NCc1cccnc1)C1c2ccccc2C(=O)N1CCc1ccc(Cl)cc1 (configuration not stated) | 668 s
Cc1nc(-c2ccc(-c3noc(COc4ccccc4)n3)cc2)cs1 | 1180 s
CCc1ccc(S(=O)(=O)N2CCN(c3ccc4nncn4n3)CC2)s1 | 693 s
O=C(Nc1nnc(Cc2ccccc2)s1)C1CC(=O)N(c2n[nH]c3cccc(F)c23)C1 (configuration not stated) | 745 s
CC(C)(C)NC(=O)N1CC(N(Cc2ccncc2)S(C)(=O)=O)C1 | 573 s
Cc1ccoc1C(=O)N1CCC2(CCC2O)CC1 (configuration not stated) | 645 s
CN1CCN(C(c2cccnc2)c2c(NC(=O)c3ccco3)sc3c2CCCC3)CC1 (configuration not stated) | 611 s
O=C(NCCc1cccnc1)C1CN(S(=O)(=O)c2ccccc2)CC12CCCCC2 (configuration not stated) | 664 s
COc1cc(CN2C[C@@H]3C(=O)N(C)C(=O)[C@@H]3C2)cc(OC)c1 | 585 s
Cc1ccc(Nc2c(-c3ccc(Cl)cc3)nc3cnccn23)c(Br)c1 | 1170 s
Cn1nc(C(=O)N2CCCN(c3cc(-c4ccc(Cl)cc4)[nH]n3)CC2)c2ccccc21 | 805 s
CCOCC(=O)N1CC(c2nc(CCOC)no2)C1 | 600 s
COc1ccc(OC)c(NC(=O)C2CCCN2S(=O)(=O)c2cc3c(cc2C)NC(=O)CO3)c1 (configuration not stated) | 772 s
Cc1nc(OC(C)C)cc(N2CCN(C(=O)CCc3ccccc3)CC2)n1 | 617 s
Cc1nn(Cc2nc(-c3ccc(NC(=O)C4CCC4)cc3)oc2C)c(C)c1C | 881 s

Compound | RP-LC retention time
CN(C)C(CNC(=O)c1ccccc1C(F)(F)F)c1cn(C)c2ccccc12 (configuration not stated) | 602 s
COc1ccc(NC(=O)c2cnc(-c3ccc(OC)cc3)nc2-c2ccncc2)cc1 | 829 s
COc1ccc(CNC(=O)c2cn3cccc(C)c3n2)cc1OC | 604 s
Cc1noc(CNC(=O)C2CCN(C(=O)Cn3c(=O)oc4ccccc43)CC2)n1 | 608 s
O=C(c1sc(N2CCCCC2)nc1-c1ccccc1)c1c[nH]c2ccccc12 | 1080 s
COc1ccc(C(=O)CC2(O)C(=O)Nc3ccc(C)cc32)c(OC)c1OC (configuration not stated) | 722 s
CCOc1ccc(N2C=C(C(=O)OC)S(=O)(=O)c3ccc(F)cc32)cc1 | 856 s
O=C(NCc1ccc2c(c1)OCCCO2)c1cccs1 | 791 s
CCc1cc(N2CCN(C(=O)COc3ccc(OC)cc3)CC2)nc2nncn12 | 602 s
COc1cccc(N2C(=O)C3N=NN(Cc4nc(-c5ccc(C)cc5)no4)C3C2=O)c1 (configuration not stated) | 990 s
CN(C)c1ccc(CN2CCc3nc(N4CCN(c5ccccc5F)CC4)ncc3C2)cc1 | 807 s
O=C(CCC[C@@H]1[C@H]2CCCN3CCC[C@@H](CN1C(=O)c1cc(F)cc(F)c1)[C@@H]23)N1CCOCC1 | 605 s
COCCNC(=O)Cn1cccc1-c1nc(-c2ccc(Cl)cc2)cs1 | 988 s
Cc1cn(C)c(CC(=O)NC2CCCCCC2)c1C(=O)O | 765 s
CCOC(=O)c1[nH]c(C)c(CCC(=O)NCCN2CCN(C)CC2)c1C | 547 s
O=c1cccnn1CCNS(=O)(=O)c1ccc(OC(F)(F)F)cc1 | 711 s
Cn1cc2c(n1)c(=O)n(Cc1ccc(F)cc1)c(=O)n2CC(=O)Nc1cc(F)ccc1F | 841 s
Cc1cc(C)c2sc(NC(=O)c3ccco3)nc2c1 | 881 s
